Measured values as given in US11679110B2, “Methods of treating disorders using CSF1R inhibitors” (Deciphera Pharmaceuticals, LLC, priority 2018, dated 2023).
Like-named read-outs stand apart in the source and are kept apart here.

Experiments:
[1] = test system: CD16+ monocytes; experiment: Depletion of CSF1R-expressing (CD16+) monocytes in peripheral blood of patients, flow cytometry; type: in vivo, human; conditions: C2D1 compared to C1D1
Procedure: (§1) PK analysis was conducted on all 38 patients. Serial blood samples were collected for PK and took place on either Day −7, Cycle 1, Day 1 (C1D1) and C2D1 at pre-dose, 0.5, 1, 2, 4, 6, 8, 10-12, and 24 hr time points or Day −7, C1D1, C1D8, and C2D1 at pre-dose, 1, 2, 4, 6, and 8 hr time points, or C1D1, C1D8, and C2D1 at pre-dose, 1, 2, 4, 6, and 8 hr time points. High fat meal was given prior to dosing of Compound 1 on Day −7. PD effects were measured by two methodologies: 1) depletion of CSF1R-expressing monocytes in peripheral blood (Cohorts 1-7) from C1D1, C1D15 and C2D1; and 2) increase of plasma levels of CSF1 and IL-34, the ligands for CSF1R (Cohorts 1-7) on C1D1, C1D15, and C2D1. For the CD16^+ monocyte assay, whole blood collected in an EDTA vacutainer was aliquoted into tubes and incubated with fluorescently-labeled antibodies (CD14-Alexa488 (BD Pharmingen); CD16-PE-Cy7 (BD Pharmingen); and TIE2-APC (R&D Systems). After incubation, red blood cells were lysed, and the remaining cells were washed several times before being analyzed on a flow cytometer. For the plasma CSF1 assay or IL-34, whole blood collected in an EDTA vacutainer was centrifuged, and the plasma was collected and frozen. Plasma levels of CSF1 or IL-34 were measured using a commercial ELISA kit (R&D Systems).

[2] = test system: CSF1; experiment: Plasma CSF1 levels in patients, ELISA; type: in vivo, human; conditions: average at C2D1 vs C1D1
Procedure: as §1

[3] = test system: advanced solid tumors; experiment: Antitumor activity in patients with advanced solid tumors, RECIST 1.1; type: in vivo, human
Description: The study enrolls patients with solid tumors or manifestations of cancer with known contribution of macrophages or phagocytes, i.e., tumors known to have expression of the receptor colony-stimulating factor 1 receptor (CSF1R) or its ligands, Colony stimulating factor-1 (CSF1) or interleukin (IL)-34, confirmed by the literature or prior testing. […]. In addition, tumor-associated manifestations featuring macrophage or osteoclast pathophysiology including bone metastases and ascites or effusions that typically contain high levels of macrophages will be enrolled. […].
The study consists of a screening period that is conducted within 28 days prior to the first dose of study drug, a treatment period of 28-day cycles, an End of Treatment visit, and Follow-up Safety visits at both 30 days and 75 days (±5 days) after the last dose of study drug. Patients will be eligible to receive study drug for up to 2 years until tumor progression, occurrence of unacceptable toxicity, or withdrawal of consent, or until commercial supply of the drug is available. […] Patients may continue receiving treatment after tumor progression. […]
Tumor response will be assessed by tumor type using the following criteria: for solid tumors and DTGCT: RECIST, Version 1.1; and for bone-only disease: a new lesion(s) identified by bone scan will be considered as disease progression.

[4] = target: unphosphorylated c-KIT kinase (Homo sapiens (Human), UniProt P10721); experiment: c-KIT kinase assay, coupled pyruvate kinase/lactate dehydrogenase; type: biochemical; conditions: enzymatic assay, 1 mM ATP
[5] = Sprague-Dawley, rat, in vivo, 4 weeks
[6] = in vivo; conditions: Sprague-Dawley, rat
[7] = in vivo; conditions: Sprague-Dawley, rat; remark: listed apart in the source
[8] = in vivo; conditions: beagle, dog
[9] = dog

Sequence of unphosphorylated c-KIT kinase (P10721 other isoform, or with tags, fused parts or gaps): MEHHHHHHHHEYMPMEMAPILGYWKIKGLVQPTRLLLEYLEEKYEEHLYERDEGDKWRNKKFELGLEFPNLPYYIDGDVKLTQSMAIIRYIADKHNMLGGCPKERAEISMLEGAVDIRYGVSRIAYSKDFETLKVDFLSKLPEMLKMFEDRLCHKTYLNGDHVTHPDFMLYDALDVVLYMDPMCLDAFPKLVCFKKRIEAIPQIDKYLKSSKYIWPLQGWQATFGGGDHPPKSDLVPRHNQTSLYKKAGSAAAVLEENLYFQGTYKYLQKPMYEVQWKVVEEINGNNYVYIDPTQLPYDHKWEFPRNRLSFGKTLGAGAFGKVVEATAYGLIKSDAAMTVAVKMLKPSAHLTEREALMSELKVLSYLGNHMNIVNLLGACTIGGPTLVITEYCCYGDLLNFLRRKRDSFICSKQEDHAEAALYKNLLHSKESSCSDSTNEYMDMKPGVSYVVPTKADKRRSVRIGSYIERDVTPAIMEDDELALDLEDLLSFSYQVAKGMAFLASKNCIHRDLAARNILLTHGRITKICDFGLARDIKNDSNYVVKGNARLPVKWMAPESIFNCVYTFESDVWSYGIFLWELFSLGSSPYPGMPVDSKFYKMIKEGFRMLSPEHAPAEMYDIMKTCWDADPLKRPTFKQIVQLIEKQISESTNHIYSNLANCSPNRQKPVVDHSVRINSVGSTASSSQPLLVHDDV

In the case of `Cc1nc(-c2cnc(NC(C)C)n(C)c2=O)ccc1Oc1ccnc(-c2cnn(C)c2)c1` [Compound 1, 2-(isopropylamino)-3-methyl-5-(6-methyl-5-((2-(1-methyl-1H-pyrazol-4-yl)pyridin-4-yl)oxy)pyridin-2-yl)pyrimidin-4(3H)-one], the “decrease in levels of CSF1R-expressing monocytes” value (“decrease in levels” below) ([1]; Cohort 2) is reported as about 48%, the “decrease in levels” value ([1]; Cohort 3) is reported as about 54% and the “decrease in levels” value ([1]; Cohort 4) is reported as about 79%. For the same compound, the “decrease in levels” value ([1]; Cohort 5) was about 98%, the “increase in plasma CSF1” value ([2]; Cohort 1) was 6 fold and the “increase in plasma CSF1” value ([2]; Cohort 2) was 1.5 fold. The “increase in plasma CSF1” value ([2]; Cohort 3) was 2.9 fold, the “increase in plasma CSF1” value ([2]; Cohort 4) was 3.2 fold and the “increase in plasma CSF1” value ([2]; Cohort 5) was 43 fold. For the same compound, the “duration of stable disease” value ([3]; a patient with thymoma) was 6 months, the “patients with a best response of stable disease” value ([3]; advanced solid tumors, dose escalation) was 5 patients and the IC50 [4] was 864 nM. The “STD10 (Severely Toxic Dose in 10% of animals)” value [5] was 15 mg/kg/day, the NOAEL at 4 weeks [6] was 5 mg/kg/day and the NOAEL at 13 weeks [7] was 1.88 mg/kg/day. The NOAEL at 13 weeks [8] was 8 mg/kg/day, the NOAEL at 4 weeks ([9]; beagle, in vivo) was 7.5 mg/kg/day and the “hepatocellular injury in microscopic histology exams” value ([9]; 4-week) was “not evident”. The AST activity ([9]; 4-week, ≥2.5 mg/kg/day) was “minimally to mildly increased” and the “ALT and GLDH activity” value ([9]; 4-week, ≥7.5 mg/kg/day) was “minimally increased”.
